Read-outs that look alike come from different tables or passages of the source.
Columns and labels:
EGFR Del19/T790M/C797S = EGFR Del19/T790M/C797S (Homo sapiens, UniProt P00533, C797S/DEL746-750/T790M); assay: Biochemical EGFR kinase inhibition assay (Lance Ultra TR-FRET), triple mutant del19/T790M/C797S
Outline: (§1)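 Enzyme reactions lasted 1 hour at room temperature with test compounds between 0.003 and 10 μM, followed by 10 mM EDTA quench.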

EGFR L858R/T790M/C797S = EGFR L858R/T790M/C797S (Homo sapiens, UniProt P00533, C797S/L858R/T790M); assay: Biochemical EGFR kinase inhibition assay (Lance Ultra TR-FRET), triple mutant L858R/T790M/C797S
EGFR L858R/T790M/C797S, sequence (P00533 25-1210 T790M/C797S/L858R): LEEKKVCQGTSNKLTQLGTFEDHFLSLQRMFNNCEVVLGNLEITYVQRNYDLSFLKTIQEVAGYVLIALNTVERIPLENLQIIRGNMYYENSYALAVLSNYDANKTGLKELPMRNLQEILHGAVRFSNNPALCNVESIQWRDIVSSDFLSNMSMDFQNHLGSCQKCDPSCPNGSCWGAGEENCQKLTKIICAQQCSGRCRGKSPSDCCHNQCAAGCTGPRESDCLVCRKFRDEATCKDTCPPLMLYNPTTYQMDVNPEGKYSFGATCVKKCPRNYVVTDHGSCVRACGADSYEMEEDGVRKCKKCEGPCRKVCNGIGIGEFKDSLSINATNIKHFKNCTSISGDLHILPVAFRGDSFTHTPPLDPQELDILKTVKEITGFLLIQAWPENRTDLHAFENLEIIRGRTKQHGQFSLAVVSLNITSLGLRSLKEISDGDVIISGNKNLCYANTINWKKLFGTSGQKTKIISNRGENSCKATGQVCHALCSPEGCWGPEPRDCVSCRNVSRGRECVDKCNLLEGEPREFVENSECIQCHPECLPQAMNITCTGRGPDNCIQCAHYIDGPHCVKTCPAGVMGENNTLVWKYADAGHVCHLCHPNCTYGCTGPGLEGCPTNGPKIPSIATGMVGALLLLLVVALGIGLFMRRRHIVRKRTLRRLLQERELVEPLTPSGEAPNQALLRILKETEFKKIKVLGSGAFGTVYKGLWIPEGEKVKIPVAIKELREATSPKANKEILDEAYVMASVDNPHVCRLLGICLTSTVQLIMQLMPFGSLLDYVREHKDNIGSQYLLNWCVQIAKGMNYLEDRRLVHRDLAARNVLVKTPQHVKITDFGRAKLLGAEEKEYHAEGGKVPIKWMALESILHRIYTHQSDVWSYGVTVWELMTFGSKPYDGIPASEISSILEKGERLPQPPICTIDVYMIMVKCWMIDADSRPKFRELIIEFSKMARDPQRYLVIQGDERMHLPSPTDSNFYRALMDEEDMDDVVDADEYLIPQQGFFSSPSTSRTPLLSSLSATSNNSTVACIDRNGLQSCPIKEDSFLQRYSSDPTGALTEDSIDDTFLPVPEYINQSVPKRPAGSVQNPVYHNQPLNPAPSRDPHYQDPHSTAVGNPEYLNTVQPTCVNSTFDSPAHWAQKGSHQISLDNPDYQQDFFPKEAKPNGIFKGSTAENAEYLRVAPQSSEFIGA
Outline: as §1

EGFR Del19/C797S = EGFR Del19/C797S (Homo sapiens, UniProt P00533, C797S/DEL746-750); assay: Biochemical EGFR kinase inhibition assay (Lance Ultra TR-FRET), double mutant del19/C797S
EGFR Del19/C797S, sequence (P00533 with tags, fused parts or gaps DEL746-750/C797S): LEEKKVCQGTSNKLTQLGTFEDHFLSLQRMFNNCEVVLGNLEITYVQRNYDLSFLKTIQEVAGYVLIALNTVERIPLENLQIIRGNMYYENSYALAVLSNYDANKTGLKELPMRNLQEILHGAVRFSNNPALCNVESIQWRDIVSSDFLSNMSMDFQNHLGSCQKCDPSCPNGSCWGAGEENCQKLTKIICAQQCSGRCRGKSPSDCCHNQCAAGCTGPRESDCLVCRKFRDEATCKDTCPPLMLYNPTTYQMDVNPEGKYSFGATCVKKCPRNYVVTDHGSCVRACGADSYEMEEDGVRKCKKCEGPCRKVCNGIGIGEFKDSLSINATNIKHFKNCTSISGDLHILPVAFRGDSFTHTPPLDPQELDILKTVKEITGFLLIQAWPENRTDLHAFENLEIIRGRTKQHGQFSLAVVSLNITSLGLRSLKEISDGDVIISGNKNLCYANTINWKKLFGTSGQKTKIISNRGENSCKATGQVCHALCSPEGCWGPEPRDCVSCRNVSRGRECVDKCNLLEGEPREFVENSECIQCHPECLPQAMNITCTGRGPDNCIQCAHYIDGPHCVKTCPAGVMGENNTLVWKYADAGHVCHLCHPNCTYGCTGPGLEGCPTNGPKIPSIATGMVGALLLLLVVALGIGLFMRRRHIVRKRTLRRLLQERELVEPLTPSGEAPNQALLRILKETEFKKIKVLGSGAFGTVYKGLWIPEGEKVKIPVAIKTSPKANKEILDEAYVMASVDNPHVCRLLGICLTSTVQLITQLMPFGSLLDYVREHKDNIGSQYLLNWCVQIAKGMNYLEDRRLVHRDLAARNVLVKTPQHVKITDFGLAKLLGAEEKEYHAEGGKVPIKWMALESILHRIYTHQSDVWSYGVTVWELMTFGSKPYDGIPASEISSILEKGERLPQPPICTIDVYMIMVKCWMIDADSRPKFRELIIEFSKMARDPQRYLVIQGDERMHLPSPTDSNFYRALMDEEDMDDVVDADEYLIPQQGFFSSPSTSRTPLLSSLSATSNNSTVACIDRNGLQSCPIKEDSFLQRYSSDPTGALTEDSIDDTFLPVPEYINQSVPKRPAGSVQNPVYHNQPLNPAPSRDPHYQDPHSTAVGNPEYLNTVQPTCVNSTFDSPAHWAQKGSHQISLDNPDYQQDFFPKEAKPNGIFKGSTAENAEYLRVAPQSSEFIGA
Outline: as §1

EGFR L858R/C797S = EGFR L858R/C797S (Homo sapiens, UniProt P00533, C797S/L858R); assay: Biochemical EGFR kinase inhibition assay (Lance Ultra TR-FRET), double mutant L858R/C797S
EGFR L858R/C797S, sequence (P00533 25-1210 C797S/L858R): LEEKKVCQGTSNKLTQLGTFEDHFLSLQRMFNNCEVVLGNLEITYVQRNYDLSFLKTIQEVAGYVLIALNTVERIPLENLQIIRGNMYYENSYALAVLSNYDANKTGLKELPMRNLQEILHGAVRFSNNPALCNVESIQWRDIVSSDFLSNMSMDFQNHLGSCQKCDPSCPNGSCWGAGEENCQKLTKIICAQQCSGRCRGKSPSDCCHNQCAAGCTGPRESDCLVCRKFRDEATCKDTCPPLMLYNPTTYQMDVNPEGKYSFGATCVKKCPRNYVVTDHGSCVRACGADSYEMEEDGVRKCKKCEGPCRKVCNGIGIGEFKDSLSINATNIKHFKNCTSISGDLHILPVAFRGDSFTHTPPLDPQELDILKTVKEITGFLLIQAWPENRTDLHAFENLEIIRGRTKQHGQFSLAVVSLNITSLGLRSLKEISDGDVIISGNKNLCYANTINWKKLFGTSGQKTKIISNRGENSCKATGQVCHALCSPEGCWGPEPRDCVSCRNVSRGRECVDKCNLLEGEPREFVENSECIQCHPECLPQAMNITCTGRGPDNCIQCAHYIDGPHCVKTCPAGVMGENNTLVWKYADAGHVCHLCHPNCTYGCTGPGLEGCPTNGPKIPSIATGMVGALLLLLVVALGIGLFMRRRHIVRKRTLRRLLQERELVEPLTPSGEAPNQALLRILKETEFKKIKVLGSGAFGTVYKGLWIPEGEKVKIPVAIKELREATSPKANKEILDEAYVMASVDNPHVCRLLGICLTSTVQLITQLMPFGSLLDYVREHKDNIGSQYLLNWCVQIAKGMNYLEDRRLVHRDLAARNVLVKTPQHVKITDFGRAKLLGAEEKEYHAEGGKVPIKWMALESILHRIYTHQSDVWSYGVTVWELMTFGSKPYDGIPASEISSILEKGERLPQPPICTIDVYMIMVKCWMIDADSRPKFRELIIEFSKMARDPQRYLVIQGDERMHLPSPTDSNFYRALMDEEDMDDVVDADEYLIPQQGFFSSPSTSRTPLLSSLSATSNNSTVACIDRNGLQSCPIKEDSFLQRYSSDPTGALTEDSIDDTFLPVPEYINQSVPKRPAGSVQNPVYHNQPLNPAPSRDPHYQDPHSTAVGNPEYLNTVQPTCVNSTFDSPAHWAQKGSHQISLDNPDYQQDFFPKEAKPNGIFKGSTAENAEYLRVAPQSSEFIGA
Outline: as §1

EGFR wildtype (WT) = EGFR wildtype (WT) (Homo sapiens, UniProt P00533); assay: Biochemical EGFR kinase inhibition assay (Lance Ultra TR-FRET), wildtype
Outline: as §1

[1] = ATP at Km, read-out: IC50 Del19/T790M/C797S (nM), Km ATP
[2] = IC50 Del19/T790M/C797S (nM), 100 μM ATP
[3] = ATP at Km, read-out: IC50 L858R/T790M/C797S (nM), Km ATP
[4] = IC50 L858R/T790M/C797S (nM), 100 μM ATP
[5] = ATP at Km, read-out: IC50 Del19/C797S (nM), Km ATP
[6] = IC50 Del19/C797S (nM), 100 μM ATP
[7] = ATP at Km, read-out: IC50 L858R/C797S (nM), Km ATP
[8] = IC50 L858R/C797S (nM), 100 μM ATP
[9] = ATP at Km, read-out: IC50 WT (nM), Km ATP

EGFR Del19/T790M/C797S, sequence (P00533 with tags, fused parts or gaps DEL746-750/T790M/C797S): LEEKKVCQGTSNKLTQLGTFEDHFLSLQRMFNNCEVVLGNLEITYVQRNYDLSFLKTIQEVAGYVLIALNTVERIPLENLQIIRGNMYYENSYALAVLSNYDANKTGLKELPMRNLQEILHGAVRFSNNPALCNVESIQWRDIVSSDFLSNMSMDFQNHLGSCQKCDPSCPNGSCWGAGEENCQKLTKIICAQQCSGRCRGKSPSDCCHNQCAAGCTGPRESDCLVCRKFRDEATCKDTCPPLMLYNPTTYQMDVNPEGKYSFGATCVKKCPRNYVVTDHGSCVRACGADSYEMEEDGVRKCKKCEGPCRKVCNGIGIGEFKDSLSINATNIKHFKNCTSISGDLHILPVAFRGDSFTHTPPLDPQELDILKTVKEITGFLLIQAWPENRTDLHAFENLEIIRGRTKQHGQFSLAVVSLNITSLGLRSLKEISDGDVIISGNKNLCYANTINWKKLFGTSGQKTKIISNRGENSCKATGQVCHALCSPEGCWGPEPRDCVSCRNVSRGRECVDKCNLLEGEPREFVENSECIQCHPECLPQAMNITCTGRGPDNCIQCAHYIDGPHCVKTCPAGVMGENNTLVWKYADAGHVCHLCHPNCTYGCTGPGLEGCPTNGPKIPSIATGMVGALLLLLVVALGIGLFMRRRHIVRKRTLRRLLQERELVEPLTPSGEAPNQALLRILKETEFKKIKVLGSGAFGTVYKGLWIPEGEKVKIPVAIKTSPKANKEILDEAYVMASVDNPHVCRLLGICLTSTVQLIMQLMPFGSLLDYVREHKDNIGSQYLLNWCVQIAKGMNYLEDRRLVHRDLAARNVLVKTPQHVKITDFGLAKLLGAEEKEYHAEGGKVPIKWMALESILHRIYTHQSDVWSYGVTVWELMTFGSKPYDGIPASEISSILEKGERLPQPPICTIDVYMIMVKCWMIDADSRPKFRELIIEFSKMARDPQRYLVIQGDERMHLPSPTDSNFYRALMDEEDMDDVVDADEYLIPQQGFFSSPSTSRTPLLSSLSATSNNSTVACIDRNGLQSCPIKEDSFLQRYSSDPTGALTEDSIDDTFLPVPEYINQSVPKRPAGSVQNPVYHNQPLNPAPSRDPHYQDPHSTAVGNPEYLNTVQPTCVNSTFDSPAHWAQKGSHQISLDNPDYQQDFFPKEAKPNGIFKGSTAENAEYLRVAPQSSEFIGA

Row | IC50 (EGFR Del19/T790M/C797S; [1]) [nM] | IC50 (EGFR Del19/T790M/C797S; [2]) [nM] | IC50 (EGFR L858R/T790M/C797S; [3]) [nM] | IC50 (EGFR L858R/T790M/C797S; [4]) [nM] | IC50 (EGFR Del19/C797S; [5]) [nM] | IC50 (EGFR Del19/C797S; [6]) [nM] | IC50 (EGFR L858R/C797S; [7]) [nM] | IC50 (EGFR L858R/C797S; [8]) [nM] | IC50 (EGFR wildtype (WT); [9]) [nM] | IC50 (EGFR wildtype (WT); IC50 WT (nM), 100 μM ATP) [nM] | SMILES
1 | 0.1 | 0.3 | 0.1 | 0.3 | 0.8 | 0.7 | 1.5 | 11.5 | 5 | 2690 | CN(C)CC1(C)CCN(c2cc(Nc3ccnc(-c4cnn(S(=O)(=O)C5CC5)c4)n3)ncc2C#Cc2cnn(CC(F)F)c2)CC1 [Example 302, 2-(1-(Cyclopropylsulfonyl)-1H-pyrazol-4-yl)-N-(5-((1-(2,2-difluoroethyl)-1H-pyrazol-4-yl)ethynyl)-4-(4-((dimethylamino)methyl)-4-methylpiperidin-1-yl)pyridin-2-yl)pyrimidin-4-amine]
2 | 0.1 | 0.3 | 0.1 | 0.2 | 0.4 | 0.3 | 0.6 | 3.4 | 1.4 | 206 | CN(C)CCC1CCN(c2cc(Nc3ccnc(-c4cnn(S(=O)(=O)C5CC5)c4)n3)ncc2C#Cc2cnn(CC(F)F)c2)CC1 [Example 303, 2-(1-(Cyclopropylsulfonyl)-1H-pyrazol-4-yl)-N-(5-((1-(2,2-difluoroethyl)-1H-pyrazol-4-yl)ethynyl)-4-(4-(2-(dimethylamino)ethyl)piperidin-1-yl)pyridin-2-yl)pyrimidin-4-amine]
3 | – | 2.7 | – | 5.3 | – | 64 | – | 103 | – | > 10000 | O=S(=O)(C1CC1)n1cc(-c2nccc(Nc3cc(N[C@H]4CC[C@](O)(CO)CC4)c(C#Cc4cnn(C(F)F)c4)cn3)n2)cn1 [Example 304, (1s,4s)-4-((2-((2-(1-(Cyclopropylsulfonyl)-1H-pyrazol-4-yl)pyrimidin-4-yl)amino)-5-((1-(difluoromethyl)-1H-pyrazol-4-yl)ethynyl)pyridin-4-yl)amino)-1-(hydroxymethyl)cyclohexan-1-ol]
4 | 1.3 | 1 | 0.5 | 0.9 | 0.6 | 2.4 | 0.8 | 5.4 | – | 1520 | CC1(CO)CCN(c2cc(Nc3ccnc(-c4cnn(S(=O)(=O)C5CC5)c4)n3)ncc2C#Cc2cnn(C(F)F)c2)CC1 [Example 305, (1-(2-((2-(1-(Cyclopropylsulfonyl)-1H-pyrazol-4-yl)pyrimidin-4-yl)amino)-5-((1-(difluoromethyl)-1H-pyrazol-4-yl)ethynyl)pyridin-4-yl)-4-methylpiperidin-4-yl)methanol]
5 | 1 | 1.6 | 0.4 | 3.9 | 3.4 | 4.6 | 4.3 | 6.8 | 14.6 | > 10000 | O=S(=O)(C1CC1)n1cc(-c2nccc(Nc3cc(NC[C@H]4CC[C@@H](O)C4)c(C#Cc4cnn(C(F)F)c4)cn3)n2)cn1 [Example 306, (1R,3S)-3-(((2-((2-(1-(Cyclopropylsulfonyl)-1H-pyrazol-4-yl)pyrimidin-4-yl)amino)-5-((1-(difluoromethyl)-1H-pyrazol-4-yl)ethynyl)pyridin-4-yl)amino)methyl)cyclopentan-1-ol]
6 | 14.7 | 29.6 | 0.3 | 35.1 | 17.2 | 37.3 | 21.3 | 44.2 | 87.7 | > 10000 | O=S(=O)(C1CC1)n1cc(-c2nccc(Nc3cc(NC[C@H]4CC[C@H](O)CC4)c(C#Cc4cnn(C(F)F)c4)cn3)n2)cn1 [Example 307, (1r,4r)-4-(((2-((2-(1-(Cyclopropylsulfonyl)-1H-pyrazol-4-yl)pyrimidin-4-yl)amino)-5-((1-(difluoromethyl)-1H-pyrazol-4-yl)ethynyl)pyridin-4-yl)amino)methyl)cyclohexan-1-ol]
7 | 4.8 | 3.5 | 3.2 | 2.3 | 1.6 | 2.8 | 3.7 | 75 | 39.4 | > 10000 | O=S(=O)(C1CC1)n1cc(-c2nccc(Nc3cc(N[C@H]4CC[C@@H](CO)CC4)c(C#Cc4cnn(C(F)F)c4)cn3)n2)cn1 [Example 308, ((1s,4s)-4-((2-((2-(1-(Cyclopropylsulfonyl)-1H-pyrazol-4-yl)pyrimidin-4-yl)amino)-5-((1-(difluoromethyl)-1H-pyrazol-4-yl)ethynyl)pyridin-4-yl)amino)cyclohexyl)methanol]
8 | – | 1 | – | 1.1 | 2.4 | 3.1 | 1 | 43.8 | 24.3 | 7630 | CN(C)C[C@H]1CC[C@@H](Nc2cc(Nc3ccnc(-c4cnn(S(=O)(=O)C5CC5)c4)n3)ncc2C#Cc2cnn(CC3CC3)c2)CC1 [Example 309, 5-((1-(Cyclopropylmethyl)-1H-pyrazol-4-yl)ethynyl)-N^2-(2-(1-(cyclopropylsulfonyl)-1H-pyrazol-4-yl)pyrimidin-4-yl)-N^4-((1s,4s)-4-((dimethylamino)methyl)cyclohexyl)pyridine-2,4-diamine]
9 | – | 0.8 | – | 1.3 | 2.9 | 4.2 | 1.9 | 56.3 | 44 | 8840 | CN(C)C[C@H]1CC[C@@H](Nc2cc(Nc3ccnc(-c4cnn(S(=O)(=O)C5CC5)c4)n3)ncc2C#Cc2cnn(C(F)F)c2)CC1 [Example 310, N^2-(2-(1-(Cyclopropylsulfonyl)-1H-pyrazol-4-yl)pyrimidin-4-yl)-5-((1-(difluoromethyl)-1H-pyrazol-4-yl)ethynyl)-N^4-((1s,4s)-4-((dimethylamino)methyl)cyclohexyl)pyridine-2,4-diamine]
10 | – | 0.5 | – | 0.7 | 1.6 | 1.8 | 0.7 | 26 | 17.5 | 8550 | CN(C)C[C@H]1CC[C@@H](Nc2cc(Nc3ccnc(-c4cnn(S(=O)(=O)C5CC5)c4)n3)ncc2C#Cc2cnn(CC(F)F)c2)CC1 [Example 311, N^2-(2-(1-(Cyclopropylsulfonyl)-1H-pyrazol-4-yl)pyrimidin-4-yl)-5-((1-(2,2-difluoroethyl)-1H-pyrazol-4-yl)ethynyl)-N^4-((1s,4s)-4-((dimethylamino)methyl)cyclohexyl)pyridine-2,4-diamine]
11 | 0.3 | 0.3 | 0.1 | 0.4 | 1.1 | 2.4 | 1.1 | 12.2 | 9.6 | 6180 | CN(C)C[C@H]1CC[C@@H](Nc2cc(Nc3ccnc(-c4cnn(S(=O)(=O)C5CC5)c4)n3)ncc2C#Cc2cnn(C)c2)CC1 [Example 312, N^2-(2-(1-(Cyclopropylsulfonyl)-1H-pyrazol-4-yl)pyrimidin-4-yl)-N^4-((1s,4s)-4-((dimethylamino)methyl)cyclohexyl)-5-((1-methyl-1H-pyrazol-4-yl)ethynyl)pyridine-2,4-diamine]
12 | 0.3 | 0.4 | 0.1 | 0.3 | 1.2 | 2 | 0.9 | 9 | 10.7 | 4690 | CN(C)C[C@H]1CC[C@@H](Nc2cc(Nc3ccnc(-c4cnn(S(=O)(=O)C5CC5)c4)n3)ncc2C#Cc2cnn(C3CC3)c2)CC1 [Example 313, 5-((1-Cyclopropyl-1H-pyrazol-4-yl)ethynyl)-N^2-(2-(1-(cyclopropylsulfonyl)-1H-pyrazol-4-yl)pyrimidin-4-yl)-N^4-((1s,4s)-4-((dimethylamino)methyl)cyclohexyl)pyridine-2,4-diamine]
13 | 0.7 | 0.9 | 0.2 | 0.2 | 5.4 | 9.9 | 3.4 | 78.4 | 52.6 | > 10000 | CN(C)C[C@H]1CC[C@@H](Nc2cc(Nc3ccnc(-c4cnn(S(=O)(=O)C5CC5)c4)n3)ncc2C#Cc2cnn(C(F)(F)F)c2)CC1 [Example 314, N^2-(2-(1-(Cyclopropylsulfonyl)-1H-pyrazol-4-yl)pyrimidin-4-yl)-N^4-((1s,4s)-4-((dimethylamino)methyl)cyclohexyl)-5-((1-(trifluoromethyl)-1H-pyrazol-4-yl)ethynyl)pyridine-2,4-diamine]
14 | – | 3.7 | – | 6.8 | – | 52.2 | – | 78.6 | – | > 10000 | CN(C)CC1(O)CCN(c2cc(Nc3ccnc(-c4cnn(S(=O)(=O)C5CC5)c4)n3)ncc2C#Cc2cnn(C)c2)CC1 [Example 315, 1-(2-((2-(1-(Cyclopropylsulfonyl)-1H-pyrazol-4-yl)pyrimidin-4-yl)amino)-5-((1-methyl-1H-pyrazol-4-yl)ethynyl)pyridin-4-yl)-4-((dimethylamino)methyl)piperidin-4-ol]

— patent US11981658B2, “Substituted aminopyridine compounds as EGFR inhibitors” (YUHAN CORPORATION, priority 2021, dated 2024)
